Article PMC4867491 (Oncogene, 2015)
Like-named read-outs stand apart in the source and are kept apart here.

Legend:
Type in all cases: cell-based, human
HCT-116-C604Y = assay: Proliferation/colony formation assay; conditions: read-out: median IC50, three independent experiments
HeLa-C604Y = assay: Proliferation/colony formation assay; conditions: read-out: median IC50, three independent experiments
HCT-116, DLD-1 and U2OS = conditions: read-out: IC50 (cell viability)
DLD-1-S611R = assay: Proliferation/colony formation assay; conditions: read-out: median IC50, three independent experiments
HeLa-C604F = assay: Proliferation/colony formation assay; conditions: read-out: median IC50, three independent experiments
HeLa-I598F = assay: Proliferation/colony formation assay; conditions: read-out: median IC50, three independent experiments
DLD-1 = assay: Proliferation/colony formation assay; conditions: read-out: median IC50; DLD-1 parental; three independent experiments
HCT-116-I531M = assay: Proliferation/colony formation assay; conditions: read-out: median IC50, three independent experiments
HeLa = assay: Proliferation/colony formation assay; conditions: read-out: median IC50; HeLa parental; three independent experiments
HCT-116 = assay: Proliferation/colony formation assay; conditions: read-out: median IC50; HCT-116 parental; three independent experiments
[1] = three cancer cell lines HCT-116, DLD-1 and U2OS, Supplementary Figures 2a-c

IC50 (HCT-116-C604Y) [µM]	IC50 (HeLa-C604Y) [µM]	IC50 (HCT-116, DLD-1 and U2OS; [1]) [µM]	IC50 (DLD-1-S611R) [µM]	IC50 (HeLa-C604F) [µM]	IC50 (HCT-116, DLD-1 and U2OS; Homo sapiens) [µM]	IC50 (HeLa-I598F) [µM]	IC50 (HCT-116-I531M) [µM]	Molecule	IC50 (DLD-1) [µM]	IC50 (HeLa) [µM]	IC50 (HCT-116) [µM]
> 2	> 2	> 0.15	–	–	–	–	–	CCc1cccc(CC)c1NC(=O)c1nn(C)c2c1CCc1cnc(Nc3ccc(C(=O)NC4CCN(C)CC4)cc3OC(F)(F)F)nc1-2 [NMS-P715]	–	–	–
> 2	> 2	0.063 to 0.153	> 2	> 2	–	–	–	Cc1cc(N2CCOCC2)ccc1Nc1nc(NC2CCCCC2)c2[nH]cnc2n1 [MPI-0479605]	–	–	–
–	–	–	–	–	0.063 to 0.153	–	–	c1nc2nc(Nc3ccc(N4CCOCC4)cc3)nc(NC3CCCCC3)c2[nH]1 [Reversine, reversine]	–	–	–
> 5	> 5	–	> 5	2.74	–	3.85	3.06	AZ3146	0.719	1.33	0.56
